Each structure is given as a SMILES string.

For data set [1], the system named is PD1-ss+10aa/Gaussia Luciferase. Briefly: Dox-Induced PD1-ss-Gluc Assay. In kind it is cell-based. Particulars: 24 hr Dox induction; 293FRT/TO cells; read-out: 24 hr Dox Inducible PD1ssGluc 293FRT/TO: Mean IC50. The method, boiled down: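 The cell line was made by transfecting Flp-In 293 T-REx cells with a PD1 signal sequence+10aa–Gaussia luciferase fusion under T-REx control and selecting with hygromycin and blasticidin. Cells were seeded, and next day compound plus doxycycline was added at 37 °C, 5% CO2.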

In data set [2] the test system is TNFα-FL/Gaussia Luciferase. Briefly: Dox Induced TNFα-FL-Gluc Assay. The note with it: for IC50: 24 hr Dox induction, 293FRT/TO cells, read-out: 24 hr Dox Inducible TNFaFLGluc 293FRT/TO: Mean IC50; for 24 hr Dox Inducible TNFaFLGluc 293FRT/TO: TNF/PD1: ratio of TNFaFLGluc IC50 to PD1ssGluc IC50. The data set is classed as cell-based. A digest of the protocol: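 Stereoisomer mixtures were tested where stereochemistry is not drawn. Induction used doxycycline added together with compound dilutions in DMSO/media to Flp-In 293 T-REx cells carrying a T-REx-regulated TNFα (aa 1-233)-Gaussia luciferase construct, then incubated at 37 °C, 5% CO2.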

Data set [3] concerns HER3-ss+4aa/Gaussia Luciferase. Briefly: Dox-Induced Her3-ss-Gluc Assay. The data set is classed as cell-based. The note with it: 24 hr Dox induction; 293FRT/TO cells; read-out: 24 hr Dox Inducible Her3(ss + 4)Gluc 293FRT/TO: Mean IC50. A digest of the protocol: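 Cells were seeded a day ahead, then given compound diluted in DMSO/media with doxycycline to induce expression of the HER3 signal sequence (+4 aa)–Gaussia luciferase fusion. Incubation was at 37° C., 5% CO2, in a stable Flp-In 293 T-REx line.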

In data set [4] the test system is IL-2-FL/Gaussia Luciferase. Briefly: Dox Induced IL2-FL-Gluc Assay. In kind it is cell-based. Particulars: for IC50: 24 hr Dox induction, 293FRT/TO cells, read-out: 24 hr Dox Inducible IL2FLGluc 293FRT/TO: Mean IC50; for 24 hr Dox Inducible IL2FLGluc 293FRT/TO: IL2/PD1: ratio of IL2FLGluc IC50 to PD1ssGluc IC50. A digest of the protocol:
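Cells are plated one day ahead, then receive compound dilutions in DMSO/media with doxycycline and incubate at 37° C, 5% CO2. They are Flp-In 293 T-REx cells expressing a full-length IL-2 (amino acids 1-153)–Gaussia luciferase fusion under T-REx control.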

Data set [5] relates to multiple myeloma cell line NCI-H929. Briefly: H929 Cell Viability Assay. The data set is classed as cell-based, human. Particulars: Homo sapiens, NCI-H929, 48 h, NCI-H929 cells, Celltiter-Glo. The method, boiled down: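 Luminescent ATP detection (CellTiter-Glo) after 48 hours of compound exposure measures viability. Cells were plated in RPMI 1640 containing 10% fetal bovine serum and kept at 37° C under 5% CO2.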
Background: Cellular ATP, detected with luciferase, serves as a proxy for viable cell number.

For data set [6], the system named is multiple myeloma cell line U266B1. Briefly: U266 Cell Viability Assay. The note with it: Homo sapiens, U-266, 48 h, U266B1 cells, Celltiter-Glo. In kind it is cell-based, human. The method, boiled down: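 Steps: culture in RPMI 1640 plus 10% FBS and 2 mM glutamine; plate and add compound dilutions; incubate 48 hours at 37° C., 5% CO2; add CellTiter-Glo and quantify luciferase signal.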

Data set [7] can be described thus: Liver Microsome Stability Assay (rat). The note with it: rat liver microsomes, with NADPH, 1.0 uM compound. (In general: Liver microsomes are a subcellular fraction often used to study metabolism.)
Description: (§1) Stability of a compound was assessed in the presence of liver microsomes from various sources—mouse, rat, monkey and human liver microsomes. 1.0 uM compound, 0.4% DMSO in 0.1 M Potassium Phosphate with 1.0 mg/mL liver microsomes, were incubated at 37° C. with or without 1 mM NADPH. The samples were quenched at 0, and 30 minutes.
The nature of data set [8]: Liver Microsome Stability Assay (mouse). The note with it: mouse liver microsomes, with NADPH, 1.0 uM compound.
Description: as §1
Data set [9] can be described thus: Liver Microsome Stability Assay (human). Particulars: human liver microsomes, with NADPH, 1.0 uM compound.
Description: as §1
Data set [10] is described as follows: Liver Microsome Stability Assay (monkey). Particulars: monkey liver microsomes, with NADPH, 1.0 uM compound.
Description: as §1

Regarding `CNCCOc1ccc(N2CCC[C@@H]2c2csc(NC(=O)c3cccn3Cc3ccnc(F)c3)n2)cc1` [Compound A103, (R)-1-((2-fluoropyridin-4-yl)methyl)-N-(4-(1-(4-(2-(methylamino)ethoxy)phenyl)pyrrolidin-2-yl)thiazol-2-yl)-1H-pyrrole-2-carboxamide], the IC50 in data set [1] was 296 nM; in [2], 8640 nM; in [3], 670 nM; in data set [4], 843 nM. Further, the “24 hr Dox Inducible TNFaFLGluc 293FRT/TO: TNF/PD1” value in [2] turned out to be 29.2. Besides, the “24 hr Dox Inducible IL2FLGluc 293FRT/TO: IL2/PD1” value in [4] turned out to be 2.9. The concentration giving a half-maximal response (EC50) – broadly, the concentration that produces a half-maximal response – stood at 4040 nM in data set [5] and 5660 nM in data set [6]. Moreover, the “Liver Microsome Stability (Multiple Species): Rat - % Remaining after 30 min w/NADPH” value in [7] is 28.3%. In addition, the “Liver Microsome Stability (Multiple Species): Mouse - % Remaining after 30 min w/NADPH” value in [8] worked out at 55%. For the same compound, the “Liver Microsome Stability (Multiple Species): Human - % Remaining after 30 min w/NADPH” value in [9] is on record as 67%. In data set [10], the “Liver Microsome Stability (Multiple Species): Monkey - % Remaining after 30 min w/NADPH” value stood at 47.2%.

Regarding `CN(C)CCOc1ccc(N2CCC[C@@H]2c2csc(NC(=O)c3cccn3Cc3ccnc(F)c3)n2)cc1` [Compound A104, (R)-N-(4-(1-(4-(2-(dimethylamino)ethoxy)phenyl)pyrrolidin-2-yl)thiazol-2-yl)-1-((2-fluoropyridin-4-yl)methyl)-1H-pyrrole-2-carboxamide], the IC50 in [1] is 153 nM; in data set [2], 4030 nM; in [3] it was 355 nM; in [4] it was 435 nM. Further, the “24 hr Dox Inducible TNFaFLGluc 293FRT/TO: TNF/PD1” value in [2] came to 26.3. Also, the “24 hr Dox Inducible IL2FLGluc 293FRT/TO: IL2/PD1” value in [4] is listed as 2.8. The EC50 in data set [5] came to 3170 nM; in data set [6], 5760 nM. In addition, the “Liver Microsome Stability (Multiple Species): Rat - % Remaining after 30 min w/NADPH” value in [7] is given as 27.9%. Also, the “Liver Microsome Stability (Multiple Species): Mouse - % Remaining after 30 min w/NADPH” value in data set [8] came to 16.5%. For the same compound, the “Liver Microsome Stability (Multiple Species): Human - % Remaining after 30 min w/NADPH” value in data set [9] turned out to be 68.8%. In data set [10], the “Liver Microsome Stability (Multiple Species): Monkey - % Remaining after 30 min w/NADPH” value turned out to be 51.6%.

Turning to `CC(=O)N1CCC(Oc2cc(F)c(N3CCC[C@@H]3c3csc(NC(=O)c4cccn4Cc4ccnc(F)c4)n3)c(F)c2)CC1` [Compound A105, (R)-N-(4-(1-(4-((1-acetylpiperidin-4-yl)oxy)-2,6-difluorophenyl)pyrrolidin-2-yl)thiazol-2-yl)-1-((2-fluoropyridin-4-yl)methyl)-1H-pyrrole-2-carboxamide], the IC50 was determined as 53.6 nM in data set [1], 524 nM in [2], 91.7 nM in data set [3] and 65.8 nM in [4]. The “24 hr Dox Inducible TNFaFLGluc 293FRT/TO: TNF/PD1” value in data set [2] was determined as 9.81. Besides, the “24 hr Dox Inducible IL2FLGluc 293FRT/TO: IL2/PD1” value in data set [4] was determined as 1.2. Besides, the EC50 is 1030 nM in [5] and greater than 25000 nM in [6]. Besides, in data set [7], the “Liver Microsome Stability (Multiple Species): Rat - % Remaining after 30 min w/NADPH” value stood at 16.9%. For the same compound, in data set [8], the “Liver Microsome Stability (Multiple Species): Mouse - % Remaining after 30 min w/NADPH” value is 1.29%. In addition, the “Liver Microsome Stability (Multiple Species): Human - % Remaining after 30 min w/NADPH” value in data set [9] is given as 0.87%. In addition, the “Liver Microsome Stability (Multiple Species): Monkey - % Remaining after 30 min w/NADPH” value in data set [10] worked out at 0.98%.

Take `CC(=O)N1CCC(Oc2c(F)cc(N3CCC[C@@H]3c3csc(NC(=O)c4cccn4Cc4ccnc(F)c4)n3)cc2F)CC1` [Compound A106, (R)-N-(4-(1-(4-((1-acetylpiperidin-4-yl)oxy)-3,5-difluorophenyl)pyrrolidin-2-yl)thiazol-2-yl)-1-((2-fluoropyridin-4-yl)methyl)-1H-pyrrole-2-carboxamide]: the IC50 was 16.3 nM in data set [1], 120 nM in [2], 15.6 nM in data set [3] and 26.2 nM in data set [4]. The “24 hr Dox Inducible TNFaFLGluc 293FRT/TO: TNF/PD1” value in data set [2] is 7.32. Also, the “24 hr Dox Inducible IL2FLGluc 293FRT/TO: IL2/PD1” value in data set [4] is reported as 1.6. Further, the concentration for a half-maximal effect (EC50) in data set [5] is 472 nM; in data set [6] it was greater than 25000 nM. For the same compound, the “Liver Microsome Stability (Multiple Species): Rat - % Remaining after 30 min w/NADPH” value in data set [7] amounted to 3.12%. Moreover, in data set [8], the “Liver Microsome Stability (Multiple Species): Mouse - % Remaining after 30 min w/NADPH” value was 1.43%. Moreover, in [9], the “Liver Microsome Stability (Multiple Species): Human - % Remaining after 30 min w/NADPH” value is 2.95%. The “Liver Microsome Stability (Multiple Species): Monkey - % Remaining after 30 min w/NADPH” value in data set [10] stood at 0.35%.

For the compound `O=C(Nc1nc([C@H]2CCCN2c2ccc(OC3CCNCC3F)cc2)cs1)c1cccn1Cc1ccnc(F)c1` (stereo partly drawn) [Compound A107, N-(4-((2R)-1-(4-((3-fluoropiperidin-4-yl)oxy)phenyl)pyrrolidin-2-yl)thiazol-2-yl)-1-((2-fluoropyridin-4-yl)methyl)-1H-pyrrole-2-carboxamide], the IC50 in [1] turned out to be 205 nM; in data set [2], 2910 nM; in data set [3] it was 322 nM; in data set [4], 462 nM. The “24 hr Dox Inducible TNFaFLGluc 293FRT/TO: TNF/PD1” value in [2] is on record as 14.2. Besides, the “24 hr Dox Inducible IL2FLGluc 293FRT/TO: IL2/PD1” value in data set [4] was determined as 2.3. Further, the values for the concentration for a half-maximal effect (EC50) in [5] and in data set [6] were 4550 nM and 7280 nM, respectively. In data set [7], the “Liver Microsome Stability (Multiple Species): Rat - % Remaining after 30 min w/NADPH” value was 64.6%. For the same compound, the “Liver Microsome Stability (Multiple Species): Mouse - % Remaining after 30 min w/NADPH” value in data set [8] turned out to be 6%. For the same compound, the “Liver Microsome Stability (Multiple Species): Human - % Remaining after 30 min w/NADPH” value in data set [9] came out at 23.1%. The “Liver Microsome Stability (Multiple Species): Monkey - % Remaining after 30 min w/NADPH” value in data set [10] was 12.7%.

For `CC(=O)N1CCC(Oc2ccc(N3CCC[C@@H]3c3csc(NC(=O)c4cccn4Cc4ccnc(F)c4)n3)cc2)C(F)C1` (stereo partly drawn) [Compound A108, N-(4-((2R)-1-(4-((1-acetyl-3-fluoropiperidin-4-yl)oxy)phenyl)pyrrolidin-2-yl)thiazol-2-yl)-1-((2-fluoropyridin-4-yl)methyl)-1H-pyrrole-2-carboxamide], the IC50 in data set [1] amounted to 33.7 nM; in [2], 283 nM; in data set [3] it was 72.9 nM; in [4], 71.2 nM. In data set [2], the “24 hr Dox Inducible TNFaFLGluc 293FRT/TO: TNF/PD1” value is 8.39. In addition, in data set [4], the “24 hr Dox Inducible IL2FLGluc 293FRT/TO: IL2/PD1” value came to 2.1. The EC50 in data set [5] was 1280 nM; in data set [6], greater than 25000 nM. Also, the “Liver Microsome Stability (Multiple Species): Rat - % Remaining after 30 min w/NADPH” value in [7] is 39%. In data set [8], the “Liver Microsome Stability (Multiple Species): Mouse - % Remaining after 30 min w/NADPH” value is 17%. In addition, the “Liver Microsome Stability (Multiple Species): Human - % Remaining after 30 min w/NADPH” value in [9] is 13.2%. Besides, the “Liver Microsome Stability (Multiple Species): Monkey - % Remaining after 30 min w/NADPH” value in [10] is 0.49%.

Turning to `O=C(Nc1nc([C@H]2CCCN2c2ccc(OC3CN(C(=O)C4CC4)C3)cc2)cs1)c1cccn1Cc1ccnc(F)c1` [Compound A109, (R)-N-(4-(1-(4-((1-(cyclopropanecarbonyl)azetidin-3-yl)oxy)phenyl)pyrrolidin-2-yl)thiazol-2-yl)-1-((2-fluoropyridin-4-yl)methyl)-1H-pyrrole-2-carboxamide], the IC50 came to 31 nM in [1], 302 nM in [2], 39.2 nM in [3] and 90.7 nM in data set [4]. Further, the “24 hr Dox Inducible TNFaFLGluc 293FRT/TO: TNF/PD1” value in [2] was 9.75. The “24 hr Dox Inducible IL2FLGluc 293FRT/TO: IL2/PD1” value in data set [4] is listed as 2.9. For the same compound, the results for the EC50 in data set [5] and in [6] were 1230 nM and greater than 25000 nM, respectively. Besides, in [7], the “Liver Microsome Stability (Multiple Species): Rat - % Remaining after 30 min w/NADPH” value worked out at 55.6%. The “Liver Microsome Stability (Multiple Species): Mouse - % Remaining after 30 min w/NADPH” value in data set [8] was found to be 21%. For the same compound, in data set [9], the “Liver Microsome Stability (Multiple Species): Human - % Remaining after 30 min w/NADPH” value is 13.8%. Further, the “Liver Microsome Stability (Multiple Species): Monkey - % Remaining after 30 min w/NADPH” value in [10] was found to be 2.02%.

These data come from patent US20230286973A1, “PROTEIN SECRETION INHIBITORS” (KEZAR LIFE SCIENCES, priority 2020, published 2023).
